Laboratory results: ChEMBL document CHEMBL1201862, “PubChem BioAssay data set” (2004)
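All cell lines were grown in 96-well plates and treated with compound for 48 hours. GI50 = concentration required for 50% inhibition of growth.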 Activity calls are given as the source filed them. No stated cut-off is given here; in the data, active = GI50 up to about 1.1 µM and inactive = higher. Where a SMILES comes first, the peptide text is derived from it.

How the values were obtained:
Assay in all cases: NCI anticancer screen, dose series, 48 h
HCT-15 = test system: HCT-15
A549 = test system: A549
UACC-257 = test system: UACC-257
KM12 = test system: KM12
HL-60 = test system: HL-60
HOP-62 = test system: HOP-62
K562 = test system: K562
Malme-3M = test system: Malme-3M
OVCAR-8 = test system: OVCAR-8
EKVX = test system: EKVX
CCRF-CEM = test system: CCRF-CEM
NCI-H23 = test system: NCI-H23
SF-295 = test system: SF-295
SW-620 = test system: SW-620
MOLT-4 = test system: MOLT-4
SNB-75 = test system: SNB-75
SK-MEL-2 = test system: SK-MEL-2
SR = test system: SR

Compound | GI50 (HCT-15) | GI50 (A549) | GI50 (UACC-257) | GI50 (KM12) | GI50 (HL-60) | GI50 (HOP-62) | GI50 (K562) | GI50 (Malme-3M) | GI50 (OVCAR-8) | GI50 (EKVX) | GI50 (CCRF-CEM) | GI50 (NCI-H23) | GI50 (SF-295) | GI50 (SW-620) | GI50 (MOLT-4) | GI50 (SNB-75) | GI50 (SK-MEL-2) | GI50 (SR)
Cc1cc(Cl)ccc1NC(=O)C1C(=O)N(c2ccc(Cl)cc2C)C(=O)/C1=N\NC(N)=S (configuration not stated) | 17.1 µM | 35.4 µM (inactive) | 59 µM (inactive) | 32.9 µM (inactive) | 20.1 µM (inactive) | 21.3 µM (inactive) | 23.6 µM (inactive) | 18.7 µM (inactive) | 41.9 µM (inactive) | 22.6 µM (inactive) | 22.5 µM (inactive) | 19.8 µM (inactive) | 29.9 µM (inactive) | 29.7 µM (inactive) | 19.2 µM (inactive) |  |  | 
Cc1cc(=O)n(-c2ccccc2C)c(C)n1 | > 100 µM | > 100 µM (inactive) | > 100 µM (inactive) | > 100 µM (inactive) | > 100 µM (inactive) | > 100 µM (inactive) | > 100 µM (inactive) | > 100 µM (inactive) | > 100 µM (inactive) | > 100 µM (inactive) | > 100 µM (inactive) | > 100 µM (inactive) | > 100 µM (inactive) | > 100 µM (inactive) | > 100 µM (inactive) | > 100 µM (inactive) | > 100 µM (inactive) | 
O=C1C(Cl)=C(NCCOCCO)C(=O)c2c(O)ccc(O)c21 | 1.85 µM | 5.75 µM (inactive) | 2.97 µM (inactive) | 3.32 µM (inactive) | 3.89 µM (inactive) | 20 µM (inactive) | 2.65 µM (inactive) | 2.82 µM (inactive) | 7.36 µM (inactive) |  |  | 1.88 µM (inactive) | 11.6 µM (inactive) | 3.55 µM (inactive) | 5.19 µM (inactive) | 17 µM (inactive) | 8.67 µM (inactive) | 6.53 µM (inactive)
ClC(Cl)=C(Cl)C1(Cl)CC1COCc1ccccc1 (configuration not stated) | 33.3 µM | 26.1 µM (inactive) | 26.1 µM (inactive) | 35 µM (inactive) | 15.6 µM (inactive) | 25.9 µM (inactive) | 30.2 µM (inactive) | 18.4 µM (inactive) | 33.1 µM (inactive) | 26.1 µM (inactive) | 22.3 µM (inactive) | 25.2 µM (inactive) | 25.5 µM (inactive) | 30.9 µM (inactive) | 20.9 µM (inactive) | 37.2 µM (inactive) | 17.8 µM (inactive) | 
O=C1C=C(c2[nH]c3ccccc3c2C2=CC(=O)c3ccccc3C2=O)C(=O)c2ccccc21 |  | 65.3 µM (inactive) |  | 36.1 µM (inactive) | 21.8 µM (inactive) |  | 22.3 µM (inactive) |  | 43.8 µM (inactive) | 46.5 µM (inactive) | 16.8 µM (inactive) | 41.3 µM (inactive) | 36.1 µM (inactive) | 66.5 µM (inactive) | 15 µM (inactive) | 26 µM (inactive) |  | 20.6 µM (inactive)
c1ccc2c(c1)CCc1cc3cc4c(nc3nc1-2)-c1ccccc1CC4 | > 100 µM | > 100 µM (inactive) | > 100 µM (inactive) | > 100 µM (inactive) | > 100 µM (inactive) | > 100 µM (inactive) | > 100 µM (inactive) | > 100 µM (inactive) | > 100 µM (inactive) | > 100 µM (inactive) | > 100 µM (inactive) | > 100 µM (inactive) | > 100 µM (inactive) | > 100 µM (inactive) | > 100 µM (inactive) | > 100 µM (inactive) |  | > 100 µM (inactive)
COc1cc(C=C2C(=O)OC(C)(C)OC2=O)cc(OC)c1OC | > 100 µM | > 100 µM (inactive) | > 100 µM (inactive) | > 100 µM (inactive) | > 100 µM (inactive) |  | > 100 µM (inactive) | > 100 µM (inactive) | > 100 µM (inactive) | > 100 µM (inactive) | > 100 µM (inactive) | > 100 µM (inactive) | > 100 µM (inactive) | > 100 µM (inactive) | > 100 µM (inactive) |  | > 100 µM (inactive) | > 100 µM (inactive)
N#CC1CCCCCCCCCCC(=O)N(CCCl)C1=O (configuration not stated) |  | > 100 µM (inactive) | > 100 µM (inactive) | > 100 µM (inactive) | > 100 µM (inactive) | > 100 µM (inactive) | > 100 µM (inactive) | > 100 µM (inactive) | > 100 µM (inactive) | > 100 µM (inactive) | > 100 µM (inactive) | > 100 µM (inactive) | > 100 µM (inactive) | > 100 µM (inactive) | > 100 µM (inactive) | > 100 µM (inactive) | > 100 µM (inactive) | 
COC(=O)C(Cl)=C1CC1 | 20.4 µM | > 100 µM (inactive) | 31.6 µM (inactive) | 37 µM (inactive) | 19.7 µM (inactive) | > 100 µM (inactive) | 22.3 µM (inactive) | 21.1 µM (inactive) | 30.3 µM (inactive) | > 10 µM (inactive) | 14.3 µM (inactive) | 45.2 µM (inactive) | > 100 µM (inactive) | 18.3 µM (inactive) | 17.7 µM (inactive) | 38.4 µM (inactive) | 32.1 µM (inactive) | 
Cn1cnc([N+](=O)[O-])c1Sc1nnc(C(F)(F)F)n1C |  | > 100 µM (inactive) | 17.3 µM (inactive) | > 100 µM (inactive) |  | > 100 µM (inactive) | 23.4 µM (inactive) | 15.1 µM (inactive) | 24.9 µM (inactive) | > 100 µM (inactive) | 18.5 µM (inactive) | 37.5 µM (inactive) | > 100 µM (inactive) | 18.6 µM (inactive) | 15.2 µM (inactive) | 84.1 µM (inactive) | 21.9 µM (inactive) | 17.6 µM (inactive)
CCCCN(CCCC)C(=O)C(=O)C(C)C(=O)CC (configuration not stated) | > 100 µM | > 100 µM (inactive) | > 100 µM (inactive) | > 100 µM (inactive) | > 100 µM (inactive) | > 100 µM (inactive) | > 100 µM (inactive) | > 100 µM (inactive) | > 100 µM (inactive) |  |  | > 100 µM (inactive) | > 100 µM (inactive) | > 100 µM (inactive) | > 100 µM (inactive) | > 100 µM (inactive) | > 100 µM (inactive) | 
CC1C(c2ccccc2)N(C)C(c2ccccc2)C(C)C1(O)c1ccccc1 (configuration not stated) | 84.1 µM | 99.5 µM (inactive) | > 100 µM (inactive) | 77.8 µM (inactive) | 31.8 µM (inactive) | > 100 µM (inactive) | > 100 µM (inactive) | > 100 µM (inactive) | > 100 µM (inactive) | > 100 µM (inactive) | > 100 µM (inactive) | > 100 µM (inactive) | 46.7 µM (inactive) | 54 µM (inactive) | > 100 µM (inactive) | 73.3 µM (inactive) | 79.6 µM (inactive) | 
O=C(Nc1cc(Cl)ccc1Cl)c1cc2cccc(Cl)c2oc1=O | > 100 µM | > 100 µM (inactive) | 61.2 µM (inactive) | > 100 µM (inactive) | > 100 µM (inactive) | > 100 µM (inactive) | > 100 µM (inactive) | > 100 µM (inactive) | 47.1 µM (inactive) | > 100 µM (inactive) | > 100 µM (inactive) | > 100 µM (inactive) | > 100 µM (inactive) | > 100 µM (inactive) | > 100 µM (inactive) | 37.1 µM (inactive) |  | 
O=C(O)C(CO)NC(=O)n1c2ccccc2c2ccccc21 (configuration not stated) | > 100 µM | > 100 µM (inactive) | > 100 µM (inactive) | > 100 µM (inactive) | > 100 µM (inactive) | > 100 µM (inactive) | > 100 µM (inactive) | > 100 µM (inactive) | > 100 µM (inactive) | > 100 µM (inactive) | > 100 µM (inactive) | > 100 µM (inactive) | > 100 µM (inactive) | > 100 µM (inactive) | > 100 µM (inactive) |  | > 100 µM (inactive) | > 100 µM (inactive)
CCC(C)C1NC(=O)C2CCCN2C(=O)CNC(=O)C(C)NC(=O)C(Cc2ccccc2)NC(=O)C(C(C)C)NC1=O (configuration not stated) (cyclo(GPIVFA); configuration not given here) | > 100 µM | > 100 µM (inactive) | > 100 µM (inactive) | 61.2 µM (inactive) |  | > 100 µM (inactive) |  | > 100 µM (inactive) | > 100 µM (inactive) | > 100 µM (inactive) |  | > 100 µM (inactive) | > 100 µM (inactive) | > 100 µM (inactive) | > 100 µM (inactive) | > 100 µM (inactive) |  | > 100 µM (inactive)
CC1=C(C(=O)Nc2ccccc2C)C(c2ccco2)C(C(=O)Nc2ccccc2C)=C(C)N1C |  | > 100 µM (inactive) | > 100 µM (inactive) | > 100 µM (inactive) | > 100 µM (inactive) | > 100 µM (inactive) | 85.5 µM (inactive) | > 100 µM (inactive) | > 100 µM (inactive) | > 100 µM (inactive) | 50 µM (inactive) | > 100 µM (inactive) | > 100 µM (inactive) | > 100 µM (inactive) | 51.2 µM (inactive) |  | > 100 µM (inactive) | 72.8 µM (inactive)
CCc1cccc(C)c1NC(C)=O | > 100 µM | > 100 µM (inactive) | > 100 µM (inactive) | > 100 µM (inactive) | > 100 µM (inactive) | > 100 µM (inactive) | > 100 µM (inactive) | > 100 µM (inactive) | > 100 µM (inactive) | > 100 µM (inactive) | > 100 µM (inactive) | > 100 µM (inactive) | > 100 µM (inactive) | > 100 µM (inactive) | > 100 µM (inactive) | > 100 µM (inactive) | > 100 µM (inactive) | 
